In patent publication EP3165222A1, “USE OF PHTHALIDE COMPOUND” (Everfront Biotech Inc., priority 2014, dated 2016):
Like-named read-outs stand apart in the source and are kept apart here.

Key:
MJD84.2 transgenic mice [1] = assay: Rotarod test in MJD84.2 transgenic mice (SCA3 mice); assay type: in vivo; details: BP 100 or 500 mg/kg/bid, ligustilide 100 mg/kg/bid; versus untreated group and olive oil group; Figure 6
Description: (§1) MJD84.2 transgenic mice (i.e., the mice being transfected with ATXN3 gene with human 84 CAG repeat sequence, hereinafter referred to as "SCA3 mice") were used in this experiment. MJD84.2 transgenic mice were an animal model used for studying spinal cerebellar atrophy.
(§2) The MJD84.2 transgenic mice of […] were randomly divided into five groups, each group had six mice. The mice were treated with the following conditions for two weeks: (1) untreated group; (2) treated with olive oil (i.e., only treated with the adjuvant); (3) treated with 100 mg/kg/bid (bis in die) of BP; (4) treated with 500 mg/kg/bid of BP; (5) treated with 100 mg/kg/bid of ligustilide. The wild type mice (WT) was used as a control group. After 2 weeks, local motor and rotarod test were conducted.
Rotarod test was performed to test the balance and grip ability of mice. The mice were given practice two weeks before the first behavioral test. The experiment was conducted using an IITC rotarod (IITC Life Science Inc, USA). 10-week-old mice were tested on a rotarod once every three weeks. The test condition was set as a linear acceleration from 4 to 40 rpm within 300 seconds. The time (sec) that the mice fell from the rotarod (i.e., latency to fall) was recorded. […] After the rotarod test, the body weight of the mice were recorded. […]

calbindin = assay: Western blotting of cerebellum tissue of SCA3 mice, anti-calbindin antibody; assay type: in vivo; details: BP 100 or 500 mg/kg/bid, ligustilide 100 mg/kg/bid, versus untreated and olive oil groups, Figure 8
Description: (§3) The MJD84.2 transgenic mice (i.e., the mice with modified ATXN3 gene) of eight weeks of age were randomly divided into five groups, with six mice in each group. The mice were treated with the following conditions: (1) untreated group; (2) treated with olive oil; (3) treated with 100 mg/kg/bid of BP; (4) treated with 500 mg/kg/bid of BP; (5) treated with 100 mg/kg/bid of ligustilide. Then, the mice were sacrificed at the age of 20 weeks and 24 weeks. Cerebellar slices staining and tissue protein extraction were performed (see Example 5). Whole brain tissue of the mice was fixed overnight with 3.7% formalin and embedded in paraffin. The samples were sectioned (4 µm) by using a Quanto kit (Thermo, USA) and mounted on a microscope slide.
(§4) The cerebellums of the mice sacrificed in example 4 were separated from the whole brain, and the proteins in the cerebellums were extracted. The purified proteins were analyzed by Western blotting assay using an anti-ubiquitin antibody and an anti-calbindin antibody, respectively, to determine the changes in the protein expression level of ubiquitin and calbindin in the cerebellum tissue of SCA3 mice in each group. β-actin was used as an internal control group.

ATXN3 protein = assay: In vitro cell test: GFP-ATXN3 protein aggregation/expression in transfected cells by fluorescence microscopy; assay type: cell-based, human; details: pEGFP-C1-Ataxin3Q84 transfected HEK 293T or neural stem cells; 5 µg/ml for 24 hours; versus untreated groups; Figure 1
Description: In this experiment, the effects of BP and ligustilide on the protein expression level of SCA3 protein were analyzed. Frist, pEGFP-C1-Ataxin3Q84 plasmid (i.e., a plasmid comprising Ataxin gene with abnormal CAG repeat number (84Q)) containing green fluorescent protein or pEGFP-C1-Ataxin3Q28 plasmid (i.e., a plasmid comprising Ataxin gene with normal CAG repeat number (28Q)) (Addgene company, U.S.) was transfected into human embryonic kidney (HEK) cells 293T (Bioresource Collection and Research Center, Taiwan) or neural stem cells (NSC). The cells were then cultured in a DMEM medium (Dulbecco's modified Eagle's medium, Thermo) containing 10% fetal bovine serum (Gibco), and incubated in an incubator with 5% CO2 at 37°C. Then, the cells were treated with 5 µg/ml BP (A10353, purchased from Alfa Aesar, U.S.; with a purity of 95%) or ligustilide (5393-015M1, purchased from Pharmaron, China) for 24 hours. The protein aggregation of GFP-ATXN3 protein in the cells of each group was observed by a fluorescence microscopy. Wild type cells and cells transfected with green fluorescent protein (GFP) were used as the control group.

MJD84.2 transgenic mice [2] = assay: Local motor test in MJD84.2 transgenic mice (SCA3 mice); assay type: in vivo; details: BP 100 or 500 mg/kg/bid, ligustilide 100 mg/kg/bid, versus untreated group and olive oil group; for total moving distance: Figure 5A; for moving times: Figure 5B; for moving time: Figure 5C
Description: as §1, §2
Local motor test was performed to test the exercise ability of mice. 10-week-old mice were tested on rotarod once every three weeks. Then, the mice were placed in a transparent acrylic box 2 hours and were free to move. A behavioral test was conducted for 1 hour by using VersaMax 420 (AccuscanInstrumentsInc, USA), and the data was analyzed by statistical methods.

Purkinje cells = assay: Immunohistochemistry staining of cerebellar slices of SCA3 mice; assay type: in vivo; details: cerebellum slices; BP 100 or 500 mg/kg/bid, ligustilide 100 mg/kg/bid; sacrificed at 20 and 24 weeks; versus untreated and olive oil groups; Figure 7
Description: as §3

zebrafish = assay: Behavioral test in zebrafish injected with ATXN3 MO (tail stimulation); assay type: in vivo; details: Figure 3
Description: Morpholinos (MO) was produced by modifying the structure of a fragment of DNA, which can block protein translation process of mRNA to inhibit the expression of a target protein. The ATXN3 MO used in this experiment has a sequence of 5'-[…]-3' (SEQ ID NO. : 1), and the standard used in the control group is 5'-[…]-3' (SEQ ID NO. : 2) (hereinafter referred to as "Ct MO"). Before injection, the MO was dissolved in ddH2O, stored at -20°C for used. Zebrafish eggs were micro-injected within about one hour after birth. After 21 to 48 hours post fertilization (hpf), the zebrafish eggs were micro-injected with ATXN3 MO or ATXN3 MO in combination with 250 mg/kg BP, 125 mg/kg BP or 62.5 mg/kg BP. After 48 hours, the fish tails were stimulated by tips, and the number of stimulation causing movement of the fish tails was measured.

ubiquitin = assay: Western blotting of cerebellum tissue of SCA3 mice, anti-ubiquitin antibody; assay type: in vivo; details: mice treated with BP, versus untreated and olive oil groups, Figure 9
Description: as §3, §4

[3] = Safe dose test (toxicity of BP to zebrafish, survival rate); details: in vivo, after 48 hours, 28.5°C, Figure 2, read-out: survival rate of the zebrafishes
Description: In this experiment, the zebrafishes that were used as the animal models in the experimental group were Tg (HuC:GFP), which is characterized by its primary sensory neurons (Rohon-Beard cells) that can produce fluorescence. The zebrafishes used in the control group were wild type zebrafishes. All of the zebrafishes were provided by TZCAS (Taiwan Zebrafish Core Facility at Academia Sinica, Taiwan) and TZCF (Taiwan Zebrafish Core Facility, Taiwan). First, the toxicity of BP to zebrafish was tested by injecting different dose of BP to zebrafishes. The zebrafishes were then kept at 28.5°C. After 48 hours, the survival rate of the zebrafishes was observed.

motor neurons = assay: Confocal microscopy test of motor neurons in zebrafish injected with ATXN3 MO; assay type: in vivo; details: ATXN3 MO in combination with 250 mg/kg BP; after 48 hours; Figure 4
Description: Zebrafish eggs were micro-injected with 300 nM/µl ATXN3 MO, 250 mg/kgBP, or ATXN3 MO in combination with 250 mg/kgBP, 125 mg/kg BP or 62.5 mg/kgBP. After 48 hours, the zebrafishes were enclosed in glass slides. The motor neurons in the living body were recorded by a confocal fluorescence microscopy.

Row | SMILES | balance and grip ability (latency to fall) (MJD84.2 transgenic mice [1]) | protein expression level of calbindin (calbindin) | fluorescent signal of Ataxin3Q84 (ATXN3 protein) | total moving distance (MJD84.2 transgenic mice [2]) | moving times (MJD84.2 transgenic mice [2]) | moving time (MJD84.2 transgenic mice [2]) | number of Purkinje cells (Purkinje cells) | restoring the behavioral ability of the diseased zebrafishes (zebrafish; 250 mg/kg BP compared with the other BP doses) | amount of stimulation-caused movement of fish tails (zebrafish; ATXN3 MO in combination with 250, 125 or 62.5 mg/kg BP, after 48 hours, versus ATXN3 MO alone) | content of the ubiquitin ubiquitination proteins (ubiquitin) | survival at 48 h ([3]; 50 mg/kg BP injected) [%] | survival at 48 h ([3]; 250 mg/kg BP injected) [%] | survival at 48 h ([3]; 500 mg/kg BP injected) [%] | number of motor neurons (motor neurons)
1 | CCCC=C1OC(=O)C2=C1CCC=C2 [ligustilide, 3-butylidene-4,5-dihydrophthalide] | better | significantly higher | significantly lower | higher | higher | higher | significantly higher |  |  |  |  |  |  | 
2 | CCCC=C1OC(=O)c2ccccc21 [BP, n-butylidenephthalide] | better | significantly higher | significantly lower | higher | higher | higher | significantly higher | the most obvious effect | restored (i.e., decreased) | significantly higher | > 75 | > 75 | 50 | can maintain the number of motor neurons
